Tests used:
Test in all cases: isothermal titration calorimetry
Type in all cases: binding
UrtA [1] = biological target: T1, UrtA (Prochlorococcus marinus, UniProt Q7V3V9, W120A); conditions: pH 8.0, 20 mM Tris-HCl, 200 mM NaCl, 25 °C
T1 construct: 24-residue predicted signal peptide removed from 431-residue precursor (432 elsewhere in the source); C-terminal 6xHis tag, pET-22b, E. coli BL21(DE3); about 50 kDa; monomer; structure residues 38-431 described

UrtA [2] = biological target: T2, UrtA (Prochlorococcus marinus, UniProt Q7V3V9, E146A)
T2 construct: 24-residue predicted signal peptide removed from 431-residue precursor (432 elsewhere in the source); C-terminal 6xHis tag, pET-22b, E. coli BL21(DE3); about 50 kDa; monomer; structure residues 38-431 described
T2 sequence (Q7V3V9 entry or part of it E146A): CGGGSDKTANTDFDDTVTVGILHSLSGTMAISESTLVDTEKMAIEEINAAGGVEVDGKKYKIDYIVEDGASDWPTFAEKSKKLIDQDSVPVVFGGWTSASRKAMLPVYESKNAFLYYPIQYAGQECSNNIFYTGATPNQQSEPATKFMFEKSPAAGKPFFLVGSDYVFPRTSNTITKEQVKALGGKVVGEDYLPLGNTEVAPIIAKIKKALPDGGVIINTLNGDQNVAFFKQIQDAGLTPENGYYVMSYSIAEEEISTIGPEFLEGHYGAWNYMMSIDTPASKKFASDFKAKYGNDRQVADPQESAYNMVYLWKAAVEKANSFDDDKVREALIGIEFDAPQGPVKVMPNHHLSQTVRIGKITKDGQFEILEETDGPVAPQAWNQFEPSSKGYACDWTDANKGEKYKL

UrtA [3] = biological target: T3, UrtA (Prochlorococcus marinus, UniProt Q7V3V9, S274A)
T3 construct: 24-residue predicted signal peptide removed from 431-residue precursor (432 elsewhere in the source); C-terminal 6xHis tag, pET-22b, E. coli BL21(DE3); about 50 kDa; monomer; structure residues 38-431 described
T3 sequence (Q7V3V9 entry or part of it S274A): as the sequence (Q7V3V9 entry or part of it E146A) above, with A122E, S250A counted along it

UrtA [4] = biological target: T4, UrtA (Prochlorococcus marinus, UniProt Q7V3V9)
T4 construct: 24-residue predicted signal peptide removed from 431-residue precursor (432 elsewhere in the source); C-terminal 6xHis tag, pET-22b, E. coli BL21(DE3); about 50 kDa; monomer; structure residues 38-431 described
T4 sequence (Q7V3V9 25-431): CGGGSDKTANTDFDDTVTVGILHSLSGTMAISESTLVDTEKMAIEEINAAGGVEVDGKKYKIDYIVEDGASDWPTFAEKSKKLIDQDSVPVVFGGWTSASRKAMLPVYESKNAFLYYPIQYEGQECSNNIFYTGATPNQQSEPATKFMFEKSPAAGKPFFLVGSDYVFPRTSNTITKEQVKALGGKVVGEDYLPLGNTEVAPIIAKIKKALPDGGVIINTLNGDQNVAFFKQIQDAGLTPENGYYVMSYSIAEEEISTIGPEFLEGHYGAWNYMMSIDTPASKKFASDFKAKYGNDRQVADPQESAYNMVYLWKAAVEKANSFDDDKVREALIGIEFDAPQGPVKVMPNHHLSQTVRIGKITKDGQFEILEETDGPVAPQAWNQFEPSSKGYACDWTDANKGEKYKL

UrtA [5] = biological target: T5, UrtA (Prochlorococcus marinus, UniProt Q7V3V9, F192A)
T5 construct: 24-residue predicted signal peptide removed from 431-residue precursor (432 elsewhere in the source); C-terminal 6xHis tag, pET-22b, E. coli BL21(DE3); about 50 kDa; monomer; structure residues 38-431 described
T5 sequence (Q7V3V9 entry or part of it F192A): as the sequence (Q7V3V9 entry or part of it E146A) above, with A122E, F168A counted along it

UrtA [6] = biological target: T6, UrtA (Prochlorococcus marinus, UniProt Q7V3V9, Y141A)
T6 construct: 24-residue predicted signal peptide removed from 431-residue precursor (432 elsewhere in the source); C-terminal 6xHis tag, pET-22b, E. coli BL21(DE3); about 50 kDa; monomer; structure residues 38-431 described
T6 sequence (Q7V3V9 entry or part of it Y141A): as the sequence (Q7V3V9 entry or part of it E146A) above, with Y117A, A122E counted along it

T1 sequence (Q7V3V9 entry or part of it W120A): as the sequence (Q7V3V9 entry or part of it E146A) above, with W96A, A122E counted along it

NC(N)=O [urea]
Kd (UrtA [1]): the mutant W120A was unable to bind to urea
Kd (UrtA [2]): 3.05 ± 0.609 µM
Kd (UrtA [3]): 1.28 ± 0.639 µM
Kd (UrtA [4]): 0.141 ± 0.0112 µM
Kd (UrtA [5]): 0.114 ± 0.0267 µM
Kd (UrtA [6]): 7.95 ± 1.22 µM

From PMC10392092, “Structural and molecular basis for urea recognition by Prochlorococcus” (The Journal of Biological Chemistry, 2023)
